Values after ≈ are worked out from the molar mass of the structure shown.
Experiments:
Candida albicans [1] = experiment: Antifungal activity against Candida albicans SC5314 incubated for 24 hrs by microbroth dilution method; format: functional
Aspergillus fumigatus = experiment: Antifungal activity against Aspergillus fumigatus 7544 incubated for 48 hrs by microbroth dilution method; format: functional
Cryptococcus neoformans [2] = experiment: Antifungal activity against Cryptococcus neoformans H99 incubated for 72 hrs by microbroth dilution method; format: functional
in vitro = settings: human, Caco-2 cells; at 64 µg/mL
Candida albicans [3] = experiment: Antifungal activity against Candida albicans 25#; format: functional
[Candida] auris [4] = Antifungal activity against Candida auris D12; format: functional; settings: Candidozyma auris
Candida albicans [5] = experiment: Antifungal activity against Candida albicans 12#; format: functional
Pichia kudriavzevii [6] = experiment: Antifungal activity against Candida krusei 397; format: functional
Pichia kudriavzevii [7] = experiment: Antifungal activity against Candida krusei 463; format: functional
Candida parapsilosis [8] = experiment: Antifungal activity against Candida parapsilosis 700; format: functional; settings: Lodderomyces parapsilosis
Candida parapsilosis [9] = experiment: Antifungal activity against Candida parapsilosis 660; format: functional; settings: Lodderomyces parapsilosis
Candida albicans [10] = experiment: Antifungal activity against Candida albicans 28#; format: functional
Candida albicans [11] = experiment: Antifungal activity against Candida albicans 305; format: functional
Pichia kudriavzevii [12] = experiment: Antifungal activity against Candida krusei 629; format: functional
Candida albicans [13] = experiment: Antifungal activity against Candida albicans 162; format: functional
[Candida] auris [14] = Antifungal activity against Candida auris 791; format: functional; settings: Candidozyma auris
Candida albicans [15] = experiment: Antifungal activity against Candida albicans 20#; format: functional
Pichia kudriavzevii [16] = experiment: Antifungal activity against Candida krusei 467; format: functional
Candida parapsilosis [17] = experiment: Antifungal activity against Candida parapsilosis 90018; format: functional; settings: Lodderomyces parapsilosis
Nakaseomyces glabratus [18] = experiment: Antifungal activity against Candida glabrata ATCC2001; format: functional
[Candida] auris [19] = Antifungal activity against Candida auris 887; format: functional; settings: Candidozyma auris
Candida albicans [20] = experiment: Antifungal activity against Candida albicans 14#; format: functional
Candida tropicalis [21] = experiment: Antifungal activity against Candida tropicalis 112936; format: functional
[Candida] auris [22] = Antifungal activity against Candida auris BS12372; format: functional; settings: Candidozyma auris
Candida tropicalis [23] = experiment: Antifungal activity against Candida tropicalis ATCC750; format: functional
[24] = Cytotoxicity against HUVEC assessed as cell viability at 64 ug/ml incubated for 24 hrs by CCK-8 assay; format: toxicity, cell-based; settings: human, HUVEC cells, at 64 µg/mL, read-out: Activity
Cryptococcus neoformans [25] = experiment: Antifungal activity against Cryptococcus neoformans 32605; format: functional
Candida albicans [26] = experiment: Antifungal activity against Candida albicans Y0109; format: functional
Candida parapsilosis [27] = experiment: Antifungal activity against Candida parapsilosis 22019; format: functional; settings: Lodderomyces parapsilosis
Trichophyton rubrum = experiment: Antifungal activity against Trichophyton rubrum cmccftla; format: functional
Nakaseomyces glabratus [28] = experiment: Antifungal activity against Candida glabrata 537; format: functional
Nannizzia gypsea = experiment: Antifungal activity against Microsporum gypseum; format: functional

C[C@@H](c1cn(-c2ccc(Br)cc2)nn1)[C@](O)(Cn1cncn1)c1ccc(F)cc1F
MIC (Candida albicans [1]): 0.0625 µg/mL (≈ 0.131 µM) | MIC (Aspergillus fumigatus): 8 µg/mL (≈ 16.8 µM) | MIC (Cryptococcus neoformans [2]): 0.125 µg/mL (≈ 0.263 µM)

C[C@@H](c1cn(-c2ccc(C#N)cc2)nn1)[C@](O)(Cn1cncn1)c1ccc(F)cc1F
MIC (Candida albicans [1]): 0.125 µg/mL (≈ 0.297 µM) | MIC (Aspergillus fumigatus): > 64 µg/mL | MIC (Cryptococcus neoformans [2]): 0.25 µg/mL (≈ 0.593 µM)

C[C@@H](c1cn(-c2ccc(OCc3ccc(OC(F)(F)F)cc3)cc2)nn1)[C@](O)(Cn1cncn1)c1ccc(F)cc1F
MIC (Candida albicans [1]): 0.25 µg/mL (≈ 0.426 µM) | MIC (Aspergillus fumigatus): 8 µg/mL (≈ 13.6 µM) | MIC (Cryptococcus neoformans [2]): 0.0625 µg/mL (≈ 0.107 µM)

CC(=O)c1ccc(-n2cc([C@H](C)[C@](O)(Cn3cncn3)c3ccc(F)cc3F)nn2)cc1
MIC (Candida albicans [1]): 0.125 µg/mL (≈ 0.285 µM) | MIC (Aspergillus fumigatus): > 64 µg/mL | MIC (Cryptococcus neoformans [2]): 0.25 µg/mL (≈ 0.57 µM)

C[C@@H](c1cn(-c2ccc(OCC(F)(F)C(F)(F)F)cc2)nn1)[C@](O)(Cn1cncn1)c1ccc(F)cc1F
MIC (Aspergillus fumigatus): 8 µg/mL (≈ 14.7 µM) | MIC (Cryptococcus neoformans [2]): 0.0625 µg/mL (≈ 0.115 µM)

CC[C@@H]([C@H](C)O)n1ncn(-c2ccc(N3CCN(c4ccc(OC[C@@H]5CO[C@@](Cn6cncn6)(c6ccc(F)cc6F)C5)cc4)CC3)cc2)c1=O [POSACONAZOLE]
viability at 24 h, 64 ug/ml (in vitro): 68.3% | MIC (Candida albicans [1]): 0.125 µg/mL (≈ 0.178 µM) | MIC (Aspergillus fumigatus): 0.5 µg/mL (≈ 0.713 µM) | MIC (Candida albicans [3]): > 64 µg/mL | MIC ([Candida] auris [4]): ≤ 0.125 µg/mL | MIC (Candida albicans [5]): > 64 µg/mL | MIC (Pichia kudriavzevii [6]): 2 µg/mL (≈ 2.85 µM) | MIC (Pichia kudriavzevii [7]): 2 µg/mL (≈ 2.85 µM) | MIC (Candida parapsilosis [8]): 1 µg/mL (≈ 1.43 µM) | MIC (Candida parapsilosis [9]): 0.5 µg/mL (≈ 0.713 µM) | MIC (Candida albicans [10]): 0.5 µg/mL (≈ 0.713 µM) | MIC (Candida albicans [11]): > 16 µg/mL | MIC (Cryptococcus neoformans [2]): 0.5 µg/mL (≈ 0.713 µM) | MIC (Pichia kudriavzevii [12]): 2 µg/mL (≈ 2.85 µM) | MIC (Candida albicans [13]): > 64 µg/mL | MIC ([Candida] auris [14]): ≤ 0.125 µg/mL | MIC (Candida albicans [15]): 0.5 µg/mL (≈ 0.713 µM) | MIC (Pichia kudriavzevii [16]): 2 µg/mL (≈ 2.85 µM) | MIC (Candida parapsilosis [17]): 0.5 µg/mL (≈ 0.713 µM) | MIC (Nakaseomyces glabratus [18]): 2 µg/mL (≈ 2.85 µM) | MIC ([Candida] auris [19]): ≤ 0.125 µg/mL | MIC (Candida albicans [20]): > 64 µg/mL | MIC (Candida tropicalis [21]): > 16 µg/mL | MIC ([Candida] auris [22]): ≤ 0.125 µg/mL | MIC (Candida tropicalis [23]): > 16 µg/mL | viability at 24 h, 64 ug/ml [24]: 115%

C[C@@H](c1cn(-c2c(F)cccc2F)nn1)[C@](O)(Cn1cncn1)c1ccc(F)cc1F
MIC (Candida albicans [1]): 0.125 µg/mL (≈ 0.289 µM) | MIC (Aspergillus fumigatus): 2 µg/mL (≈ 4.63 µM) | MIC (Cryptococcus neoformans [2]): 0.125 µg/mL (≈ 0.289 µM)

C[C@@H](c1cn(-c2ccc(OCC(F)(F)C(F)F)cc2)nn1)[C@](O)(Cn1cncn1)c1ccc(F)cc1F
MIC (Candida albicans [1]): 0.0156 µg/mL (≈ 0.0296 µM) | MIC (Aspergillus fumigatus): 2 µg/mL (≈ 3.8 µM) | MIC (Cryptococcus neoformans [2]): 0.0625 µg/mL (≈ 0.119 µM)

C[C@@H](c1cn(-c2ccc(OCc3ccc(Cl)cc3)cc2)nn1)[C@](O)(Cn1cncn1)c1ccc(F)cc1F
MIC (Candida albicans [1]): 0.5 µg/mL (≈ 0.931 µM) | MIC (Aspergillus fumigatus): > 64 µg/mL | MIC (Cryptococcus neoformans [2]): 0.0625 µg/mL (≈ 0.116 µM)

C[C@@H](c1cn(-c2ccc(F)cc2)nn1)[C@](O)(Cn1cncn1)c1ccc(F)cc1F
MIC (Candida albicans [1]): 0.0625 µg/mL (≈ 0.151 µM) | MIC (Aspergillus fumigatus): 4 µg/mL (≈ 9.65 µM) | MIC (Cryptococcus neoformans [2]): 0.0625 µg/mL (≈ 0.151 µM)

C[C@@H](c1cn(-c2cc(F)c(F)c(F)c2)nn1)[C@](O)(Cn1cncn1)c1ccc(F)cc1F
MIC (Candida albicans [1]): 0.125 µg/mL (≈ 0.278 µM) | MIC (Aspergillus fumigatus): 2 µg/mL (≈ 4.44 µM) | MIC (Cryptococcus neoformans [2]): 0.125 µg/mL (≈ 0.278 µM)

C[C@@H](c1cn(-c2cc(F)ccc2F)nn1)[C@](O)(Cn1cncn1)c1ccc(F)cc1F
MIC (Cryptococcus neoformans [25]): 0.0313 µg/mL (≈ 0.0724 µM) | MIC (Candida albicans [1]): 0.0625 µg/mL (≈ 0.145 µM) | MIC (Aspergillus fumigatus): 2 µg/mL (≈ 4.63 µM) | MIC (Candida albicans [26]): 0.0313 µg/mL (≈ 0.0724 µM) | MIC (Candida parapsilosis [27]): 0.0625 µg/mL (≈ 0.145 µM) | MIC (Cryptococcus neoformans [2]): 0.0625 µg/mL (≈ 0.145 µM) | MIC (Trichophyton rubrum): 0.25 µg/mL (≈ 0.578 µM) | MIC (Nakaseomyces glabratus [28]): 0.0625 µg/mL (≈ 0.145 µM) | MIC (Nannizzia gypsea): 2 µg/mL (≈ 4.63 µM)

C[C@@H](c1cn(-c2ccc(OC(F)(F)F)cc2)nn1)[C@](O)(Cn1cncn1)c1ccc(F)cc1F
MIC (Cryptococcus neoformans [25]): 0.0625 µg/mL (≈ 0.13 µM) | MIC (Candida albicans [1]): 0.0313 µg/mL (≈ 0.0652 µM) | MIC (Aspergillus fumigatus): 4 µg/mL (≈ 8.33 µM) | MIC (Candida albicans [26]): 0.0313 µg/mL (≈ 0.0652 µM) | MIC (Candida parapsilosis [27]): 0.125 µg/mL (≈ 0.26 µM) | MIC (Cryptococcus neoformans [2]): 0.0625 µg/mL (≈ 0.13 µM) | MIC (Trichophyton rubrum): 0.15 µg/mL (≈ 0.312 µM) | MIC (Nakaseomyces glabratus [28]): 0.125 µg/mL (≈ 0.26 µM) | MIC (Nannizzia gypsea): 2 µg/mL (≈ 4.16 µM)

C[C@@H](c1cn(-c2ccc(OC(F)(F)F)cc2)nn1)[C@](O)(Cn1cncn1)c1cc(F)ccc1F
MIC (Candida albicans [1]): 0.0625 µg/mL (≈ 0.13 µM) | MIC (Aspergillus fumigatus): 32 µg/mL (≈ 66.6 µM) | MIC (Cryptococcus neoformans [2]): 0.125 µg/mL (≈ 0.26 µM)

CCC(C)n1ncn(-c2ccc(N3CCN(c4ccc(OCC5COC(Cn6cncn6)(c6ccc(Cl)cc6Cl)O5)cc4)CC3)cc2)c1=O (centres undefined) [ITRACONAZOLE]
MIC (Candida albicans [3]): > 64 µg/mL | MIC ([Candida] auris [4]): 4 µg/mL (≈ 5.67 µM) | MIC (Candida albicans [5]): > 64 µg/mL | MIC (Pichia kudriavzevii [6]): 2 µg/mL (≈ 2.83 µM) | MIC (Pichia kudriavzevii [7]): 1 µg/mL (≈ 1.42 µM) | MIC (Candida parapsilosis [8]): 4 µg/mL (≈ 5.67 µM) | MIC (Candida parapsilosis [9]): 1 µg/mL (≈ 1.42 µM) | MIC (Candida albicans [10]): 0.5 µg/mL (≈ 0.709 µM) | MIC (Candida albicans [11]): > 16 µg/mL | MIC (Pichia kudriavzevii [12]): 1 µg/mL (≈ 1.42 µM) | MIC (Candida albicans [13]): > 64 µg/mL | MIC ([Candida] auris [14]): 4 µg/mL (≈ 5.67 µM) | MIC (Candida albicans [15]): 0.5 µg/mL (≈ 0.709 µM) | MIC (Pichia kudriavzevii [16]): 2 µg/mL (≈ 2.83 µM) | MIC (Candida parapsilosis [17]): 0.5 µg/mL (≈ 0.709 µM) | MIC (Nakaseomyces glabratus [18]): 2 µg/mL (≈ 2.83 µM) | MIC ([Candida] auris [19]): 4 µg/mL (≈ 5.67 µM) | MIC (Candida albicans [20]): > 64 µg/mL | MIC (Candida tropicalis [21]): > 16 µg/mL | MIC ([Candida] auris [22]): 1 µg/mL (≈ 1.42 µM) | MIC (Candida tropicalis [23]): > 16 µg/mL

C[C@@H](c1cn(-c2ccc(F)c(F)c2)nn1)[C@](O)(Cn1cncn1)c1ccc(F)cc1F
MIC (Candida albicans [1]): 0.0625 µg/mL (≈ 0.145 µM) | MIC (Aspergillus fumigatus): 8 µg/mL (≈ 18.5 µM) | MIC (Cryptococcus neoformans [2]): 0.125 µg/mL (≈ 0.289 µM)

C[C@@H](c1cn(-c2ccc(OCc3ccc(F)cc3)cc2)nn1)[C@](O)(Cn1cncn1)c1ccc(F)cc1F
MIC (Candida albicans [1]): 0.125 µg/mL (≈ 0.24 µM) | MIC (Aspergillus fumigatus): > 64 µg/mL | MIC (Cryptococcus neoformans [2]): 0.0625 µg/mL (≈ 0.12 µM)

C[C@@H](c1cn(-c2ccccc2)nn1)[C@](O)(Cn1cncn1)c1ccc(F)cc1F
MIC (Candida albicans [1]): 0.0625 µg/mL (≈ 0.158 µM) | MIC (Aspergillus fumigatus): 4 µg/mL (≈ 10.1 µM) | MIC (Cryptococcus neoformans [2]): 0.0625 µg/mL (≈ 0.158 µM)

C[C@@H](c1cn(-c2cc(F)cc(F)c2)nn1)[C@](O)(Cn1cncn1)c1ccc(F)cc1F
MIC (Candida albicans [1]): 0.0625 µg/mL (≈ 0.145 µM) | MIC (Aspergillus fumigatus): 8 µg/mL (≈ 18.5 µM) | MIC (Cryptococcus neoformans [2]): 0.0625 µg/mL (≈ 0.145 µM)

C[C@@H](c1cn(-c2ccc(Cl)cc2)nn1)[C@](O)(Cn1cncn1)c1ccc(F)cc1F
MIC (Candida albicans [1]): 0.0625 µg/mL (≈ 0.145 µM) | MIC (Aspergillus fumigatus): 4 µg/mL (≈ 9.28 µM) | MIC (Cryptococcus neoformans [2]): 0.0156 µg/mL (≈ 0.0362 µM)

C[C@@H](c1cn(-c2ccc(Cl)cc2Cl)nn1)[C@](O)(Cn1cncn1)c1ccc(F)cc1F
MIC (Aspergillus fumigatus): > 8 µg/mL | MIC (Cryptococcus neoformans [2]): 0.125 µg/mL (≈ 0.269 µM)
